Laboratory results published in patent US20130231303A1, “5-HALOGENOPYRAZOLE(THIO)CARBOXAMIDES” (Bayer Intellectual Property GmbH, priority 2010, published 2013).

Legend:
Phakopsora pachyrhizi = assay: Phakopsora test (soybeans)/protective; assay type: in vivo; settings: protective, 250 ppm, evaluated 11 days after inoculation
From the text: Phakopsora Test (Soybeans)/Protective

Botrytis cinerea = assay: Botrytis test (beans)/preventive; assay type: in vivo; settings: preventive, 100 ppm, lesion size 2 days after inoculation
Procedure: Botrytis Test (Beans)/Preventive
• Solvent: 24.5 parts by weight of acetone • 24.5 parts by weight of N,N-dimethylformamide • Emulsifier: 1 part by weight of alkylaryl polyglycol ether
After the spray coating has dried on, 2 small pieces of agar covered with growth of Botrytis cinerea are placed on each leaf. The inoculated plants are placed in a darkened chamber at 20° C. and a relative atmospheric humidity of 100%.
2 days after the inoculation, the size of the lesions on the leaves is evaluated.

[1] = logP by HPLC on reversed-phase column (EEC Directive 79/831 Annex V.A8); assay type: physicochemical; settings: HPLC, reversed-phase C 18, 40° C., 0.1% aqueous formic acid and acetonitrile gradient
Procedure: In table 1, the logP values were determined in accordance with EEC Directive 79/831 Annex V.A8 by HPLC (High Performance Liquid Chromatography) on a reversed-phase column (C 18), using the method described below: Temperature: 40° C.; Mobile phases: 0.1% aqueous formic acid and acetonitrile; linear gradient from 10% acetonitrile to 90% acetonitrile. Calibration was carried out using unbranched alkan-2-ones (comprising 3 to 16 carbon atoms) with known logP values (determination of the logP values by the retention times using linear interpolation between two successive alkanones). lambda-max-values were determined using UV-spectra from 200 nm to 400 nm and the peak values of the chromatographic signals.

Pyricularia oryzae = assay type: in vivo; settings: rice, protective, 250 ppm, evaluated 5 days after inoculation
Rhizoctonia solani = assay: Rhizoctonia test (rice)/protective; assay type: in vivo; settings: protective, 250 ppm, evaluated 4 days after inoculation
From the text: Rhizoctonia Test (Rice)/Protective

Alternaria solani = assay: Alternaria test (tomato)/preventive; assay type: in vivo; settings: preventive, 500 ppm, evaluated 7 days after inoculation
Procedure: The plants remain for one day in an incubation cabinet at approximately 22° C. and a relative atmospheric humidity of 100%. Then the plants are placed in an incubation cabinet at approximately 20° C. and a relative atmospheric humidity of 96%.

[2] = test system: Fusarium nivale (var. majus); assay: Fusarium nivale (var. majus)-test (wheat)/preventive; assay type: in vivo; settings: preventive; for Efficacy: evaluated 5 days after inoculation
Procedure: After the spray coating has been dried, the plants are slightly injured by using a sandblast and afterwards they are sprayed with a conidia suspension of Fusarium nivale (var. majus). The plants are placed in the greenhouse under a translucent incubation cabinet at a temperature of approximately 10° C. and a relative atmospheric humidity of approximately 100%.

Pyrenophora teres = assay: Pyrenophora test (barley)/preventive; assay type: in vivo; settings: preventive, 500 ppm, evaluated 7-9 days after inoculation
Procedure: (§1) The plants remain for 48 hours in an incubation cabinet at 22° C. and a relative atmospheric humidity of 100%. Then the plants are placed in a greenhouse at a temperature of approximately 20° C. and a relative atmospheric humidity of approximately 80%.

Cochliobolus miyabeanus = assay: Cochliobolus test (rice)/protective; settings: protective, 250 ppm, evaluated 4 days after inoculation
Procedure: • Solvent: 28.5 parts by weight of acetone • Emulsifier: 1.5 part by weight of alkylaryl polyglycol ether
1 day after the treatment, the plants are inoculated with an aqueous spore suspension of Cochliobolus miyabeanus. The plants are then placed in a greenhouse at a relative atmospheric humidity of 100% and a temperature of 25° C.
Evaluation is carried out 4 days after the inoculation.

[3] = test system: Blumeria graminis f.sp. hordei; assay: Blumeria test (barley)/preventive; assay type: in vivo; settings: preventive, 500 ppm, evaluated 7 days after inoculation
Procedure: After the spray coating has been dried, the plants are dusted with spores of Blumeria graminis f.sp. hordei. The plants are placed in the greenhouse at a temperature of approximately 18° C. and a relative atmospheric humidity of approximately 80% to promote the development of mildew pustules.

Puccinia recondita = assay: Puccinia test (wheat)/preventive; assay type: in vivo; settings: preventive, 500 ppm, evaluated 7-9 days after inoculation
Procedure: as §1

Sphaerotheca fuliginea = assay: Sphaerotheca test (cucumber)/preventive; assay type: in vivo; settings: preventive, 500 ppm, evaluated 7 days after inoculation
Procedure: Then the plants are placed in a greenhouse at approximately 23° C. and a relative atmospheric humidity of approximately 70%.

Venturia inaequalis = assay: Venturia test (apples)/preventive; assay type: in vivo; settings: preventive, 100 ppm, evaluated 10 days after inoculation
Procedure: Venturia Test (Apples)/Preventive […] After the spray coating has dried on, the plants are inoculated with an aqueous conidia suspension of the causal agent of apple scab (Venturia inaequalis) and then remain for 1 day in an incubation cabinet at approximately 20° C. and a relative atmospheric humidity of 100%.

Uromyces appendiculatus = assay: Uromyces test (beans)/preventive; assay type: in vivo; settings: preventive, 100 ppm, evaluated 10 days after inoculation
From the text: Uromyces Test (Beans)/Preventive

CC(C)CC(C)c1sccc1NC(=O)c1c(C(F)F)nn(C)c1Cl (stereo not shown) [Example 3]
Efficacy (Phakopsora pachyrhizi): 98%
Efficacy (Botrytis cinerea): 98%
logP [1]: 4.19
Efficacy (Pyricularia oryzae): 97%
Efficacy (Rhizoctonia solani): 100%
Efficacy (Alternaria solani): 100%
Efficacy ([2]; 250 ppm): 86%
Efficacy ([2]; 500 ppm): 100%
protection ([2]; dose of 250 ppm and 500 ppm (text summary of table G2)): at least 80%
Efficacy (Pyrenophora teres): 100%
Efficacy (Cochliobolus miyabeanus): 97%
Efficacy [3]: 100%
Efficacy (Puccinia recondita): 100%
Efficacy (Sphaerotheca fuliginea): 96%
Efficacy (Venturia inaequalis): 100%
Efficacy (Uromyces appendiculatus): 100%
